In patent publication US10968214B2, “KRas G12C inhibitors” (Eli Lilly and Company, priority 2018, dated 2021):
pIC50: −log10 of the molar value. Where “and” joins values, the source holds several entries; their conditions need not be identical. Equal entries are not always repeated. Where two headings read alike, the source gives them in different places.

Tests used:
EL3187 (PDX) = experiment: Anti-tumor growth activity, EL3187 lung PDX; format: in vivo; conditions: for Tumor Growth Inhibition (%) or Regression (−%): EL3187 (PDX) Lung, 28 Day, negative = regression
SW1463 xenograft = experiment: Anti-tumor growth activity, SW1463 colorectal xenograft; format: in vivo; conditions: for Tumor Growth Inhibition (%) or Regression (−%): 28 Day, negative = regression
UM-UC-3 = experiment: Combination 4 day growth assay (Cell TiterGlo), UM-UC-3; format: cell-based; conditions: Homo sapiens, UMUC3, 96 h, single treatment, read-out: Absolute IC50
Description: Cell lines for this study are obtained from ATCC and grown under ATCC recommended conditions, except for LXFA-983L, which is obtained from Oncotest/Charles Rivers Laboratories, Wilmington, Mass. and D122-96, which is obtained from L. Eisenbach (Weizman Institute of Science, Rehovot, Israel)—both grown under recommended conditions. […] The proliferation assay is performed as a 4 day growth assay using Cell TiterGlo® as the readout. Briefly, cells are plated in 96-well cell culture plates and allowed to adhere overnight at 37° C. The following day, cells are treated with compounds, either single treatments or combination treatments. First, the testing compounds are serially diluted in DMSO, followed by dilution into media as a 5× concentration with 1% DMSO, and finally added to cells in media to dilute to 1×. The cells are incubated at 37° C. for 4 more days. At the end of the incubation period, Cell TiterGlo® reagent is mixed and added to the wells. After 10 minutes, the luminescence is read by a Perkin Elmer Envision instrument. Absolute IC50 values generated by a 4-parameter logistics model for the single and combination treatments are generated, followed by combination indexes for each combination treatment and cell line. The combination IC50 values are adjusted based on the total concentration of each compound when added together. […] The combination index (CI) measures the degree to which the potency of a combination therapy differs from the expected-if-additive potency and is based on the Loewe definition of additivity.
[formula] Where • CAy and CBy are the concentrations of therapies A and B that produce an effect, y, when given in combination • ICAy and ICBy are the concentrations of A and B that produce an effect, y, when given individually The biological interpretation of the combination index is as follows: synergistic if the combination index <0.5, additive if the combination index is between 0.5 and 2, and antagonistic if the combination index is >2.

SW837 = experiment: CellTiterGlo Cell Proliferation Assay, SW837; format: cell-based; conditions: Homo sapiens, KRas G12C, Rectum, 96 hr
Description: (§1) A panel of tumor cell lines harboring KRas G12C or other KRas mutations are collected (Table 6). All cell lines are from ATCC or other sources indicated.
(§2) Typically cells are cultured in RPMI1640 or Dulbecco's modified Eagle's medium (DMEM, GIBCO) supplemented with 10% FBS (GIBCO, Invitrogen). For 2D culture cells (4×10^3/well) maintained in growth medium described above, are plated onto 96 well tissue culture plates Corning® Cat. 3603) a day before the treatment. For 3D culture 8000 cells/well are seeded onto 96 well ultra-low attachment tissue culture plates (Corning, #3474). The cells are treated compound for 96 hr, and then are analyzed for viability using the CellTiterGlo® Luminescent Cell Viability Assay® (Promega #G7572 for 2D and Promega #G9683 for 3D cultures) according to manufacturer's instructions and an EnVision™ plate reader. Nonlinear regression and sigmoidal dose-response curves are used to calculate the half maximal inhibitory concentration (IC50) with GraphPad Prism 4® software.

H2030 = experiment: CellTiterGlo Cell Proliferation Assay, H2030; format: cell-based; conditions: Homo sapiens, NCI-H2030, KRas G12C, Lung, 96 hr
Description: as §1, §2

MiaPaca-2 xenograft = experiment: Anti-tumor growth activity, MiaPaca-2 pancreatic xenograft; format: in vivo; conditions: for Tumor Growth Inhibition (%) or Regression (−%): 28 Day, negative = regression
H23 = experiment: CellTiterGlo Cell Proliferation Assay, H23; format: cell-based; conditions: Homo sapiens, NCI-H23, KRas G12C, Lung, 96 hr
Description: as §1, §2

SW1573 = experiment: CellTiterGlo Cell Proliferation Assay, SW1573; format: cell-based; conditions: Homo sapiens, KRas G12C, Lung, 96 hr, read-out: IC50 (μM) in 2 D cell proliferation
Description: as §1, §2

[1] = read-out: IC50 (μM) in 2 D cell proliferation
[2] = read-out: IC50 (μM) in 3 D spheroid cell proliferation

Q: What does the source list for `C=CC(=O)N1CCN(c2ncnc3c(F)c(-c4ccc(F)c5sc(N)nc45)c(Cl)cc23)CC1` [Example 1, 1-{4-[7-(2-Amino-7-fluoro-1,3-benzothiazol-4-yl)-6-chloro-8-fluoroquinazolin-4-yl]piperazin-1-yl}prop-2-en-1-one]?
A: Tumor Growth Inhibition (%) or Regression (−%) (EL3187 (PDX); 5 mg/kg BID): −65%; Tumor Growth Inhibition (%) or Regression (−%) (EL3187 (PDX); 5 mg/kg QD): 94%; Tumor Growth Inhibition (%) or Regression (−%) (EL3187 (PDX); 15 mg/kg BID): −80%; Tumor Growth Inhibition (%) or Regression (−%) (EL3187 (PDX); 15 mg/kg QD): −75%; Tumor Growth Inhibition (%) or Regression (−%) (EL3187 (PDX); 30 mg/kg BID, 30 mg/kg): −100% and −92.5%; Tumor Growth Inhibition (%) or Regression (−%) (EL3187 (PDX); 100 mg/kg BID): −100%; Tumor Growth Inhibition (%) or Regression (−%) (EL3187 (PDX); 100 mg/kg QD): −100%; In Vivo Anti-Tumor Activities (EL3187 (PDX); EL3187 Lung PDX, Example 1 5 mg/kg QDx28): 94.8; Tumor Growth Inhibition (%) or Regression (−%) (SW1463 xenograft; 15 mg/kg BID): −27%; Tumor Growth Inhibition (%) or Regression (−%) (SW1463 xenograft; 30 mg/kg BID): −47.9%; Tumor Growth Inhibition (%) or Regression (−%) (SW1463 xenograft; 30 mg/kg QD): −13.9%; In Vivo Anti-Tumor Activities (SW1463 xenograft; Example 1 30 mg/kg QDx28): −21.4; pIC50 (UM-UC-3): 5.74; IC50 (SW837; [1]): 0.169 µM; IC50 (SW837; [2]): 0.126 µM; IC50 (H2030; [1]): 6.88 µM; IC50 (H2030; [2]): 0.003 µM; Tumor Growth Inhibition (%) or Regression (−%) (MiaPaca-2 xenograft; 10 mg/kg BID): 75.48%; Tumor Growth Inhibition (%) or Regression (−%) (MiaPaca-2 xenograft; 10 mg/kg QD): 44.4%; Tumor Growth Inhibition (%) or Regression (−%) (MiaPaca-2 xenograft; 30 mg/kg BID): −49.6%; Tumor Growth Inhibition (%) or Regression (−%) (MiaPaca-2 xenograft; 30 mg/kg QD): 95.6%; In Vivo Anti-Tumor Activities (MiaPaca-2 xenograft; Example 1 30 mg/kg QDx28): 91.22; IC50 (H23; [1]): 0.08 µM; IC50 (H23; [2]): 0.031 µM; IC50 (SW1573): 16.7 µM
